Laboratory results: BindingDB's records for PubMed 7518514 (Abbott Laboratories, 1994)

Legend:
[1] = target: Chloride channel protein 1 (Homo sapiens, UniProt P35523)
Substance-P receptor = Substance-P receptor (Homo sapiens, UniProt P25103)
[2] = target: Gamma-aminobutyric acid receptor subunit alpha-1 (Homo sapiens, UniProt P14867)
GLRA1 protein = GLRA1 protein (Homo sapiens, UniProt Q14C71)
D(1A) dopamine receptor = D(1A) dopamine receptor (Homo sapiens, UniProt P21728)
[3] = target: Voltage-dependent N-type calcium channel subunit alpha-1B (Rattus norvegicus, UniProt Q02294)
[4] = target: Muscarinic acetylcholine receptor M1 (Mus musculus, UniProt P12657)
VIP peptides = VIP peptides (Homo sapiens, UniProt P01282)
Adenosine receptor A2a = Adenosine receptor A2a (Homo sapiens, UniProt P29274)
[5] = target: 5-hydroxytryptamine receptor 3A (Homo sapiens, UniProt P46098)
[6] = target: Gamma-aminobutyric acid type B receptor subunit 1 (Homo sapiens, UniProt Q9UBS5)
[7] = target: Beta-2 adrenergic receptor (Mus musculus, UniProt P18762)
[8] = target: Outer capsid protein sigma-1 (Reovirus type 3 (strain Dearing), UniProt P03528)
[9] = target: Voltage-dependent T-type calcium channel subunit alpha-1H (Homo sapiens, UniProt O95180)
Substance-K receptor = Substance-K receptor (Bos taurus, UniProt P05363)
D(2) dopamine receptor = D(2) dopamine receptor (Homo sapiens, UniProt P14416)
Beta-nerve growth factor = Beta-nerve growth factor (Homo sapiens, UniProt P01138)
Adenosine receptor A1 = Adenosine receptor A1 (Homo sapiens, UniProt P30542)
[10] = target: 5-hydroxytryptamine receptor 1A/1B/1D/2C (Homo sapiens, UniProt P08908+P28221+P28222+P28335)
[11] = target: Sodium-dependent dopamine transporter (Homo sapiens, UniProt Q01959)
[12] = target: Type-2 angiotensin II receptor (Homo sapiens, UniProt P50052)
Glutamate receptor 3 = Glutamate receptor 3 (Homo sapiens, UniProt P42263)
Protein kinase C = Protein kinase C (Drosophila melanogaster, UniProt P13678)
[13] = target: Inositol-tetrakisphosphate 1-kinase (Homo sapiens, UniProt Q13572)
[14] = target: Sodium-dependent noradrenaline transporter (Homo sapiens, UniProt P23975)
[15] = target: Adrenergic alpha2 receptor (Mesocricetus auratus, UniProt Q60533)
Adenylate cyclase type 9 = Adenylate cyclase type 9 (Homo sapiens, UniProt O60503)
[16] = target: Solute carrier family 22 member 1 (Rattus norvegicus, UniProt Q63089)
[17] = target: 5-hydroxytryptamine receptor 2A (Sus scrofa, UniProt P50129)
[18] = target: Glutamate receptor ionotropic, NMDA 1 (Rattus norvegicus, UniProt P35439)
Apamin = Apamin (Apis mellifera, UniProt P01500)
[19] = target: Glutamate receptor ionotropic, kainate 2 (Homo sapiens, UniProt Q13002)
Histamine H1 receptor = Histamine H1 receptor (Homo sapiens, UniProt P35367)

Measured: Ki

Outer capsid protein sigma-1, sequence (P03528 whole entry): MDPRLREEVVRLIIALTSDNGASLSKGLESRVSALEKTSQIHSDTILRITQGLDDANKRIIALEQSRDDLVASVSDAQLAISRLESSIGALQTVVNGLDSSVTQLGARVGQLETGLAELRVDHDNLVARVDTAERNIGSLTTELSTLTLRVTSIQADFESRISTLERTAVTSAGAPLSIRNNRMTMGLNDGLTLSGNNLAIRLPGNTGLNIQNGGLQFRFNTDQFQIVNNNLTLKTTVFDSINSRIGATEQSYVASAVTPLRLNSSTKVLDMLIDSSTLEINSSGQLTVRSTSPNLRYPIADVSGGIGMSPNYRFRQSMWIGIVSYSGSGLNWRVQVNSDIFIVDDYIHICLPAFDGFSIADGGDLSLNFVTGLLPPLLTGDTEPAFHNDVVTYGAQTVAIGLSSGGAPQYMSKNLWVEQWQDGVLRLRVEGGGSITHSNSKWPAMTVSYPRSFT
GLRA1 protein, sequence (Q14C71 whole entry): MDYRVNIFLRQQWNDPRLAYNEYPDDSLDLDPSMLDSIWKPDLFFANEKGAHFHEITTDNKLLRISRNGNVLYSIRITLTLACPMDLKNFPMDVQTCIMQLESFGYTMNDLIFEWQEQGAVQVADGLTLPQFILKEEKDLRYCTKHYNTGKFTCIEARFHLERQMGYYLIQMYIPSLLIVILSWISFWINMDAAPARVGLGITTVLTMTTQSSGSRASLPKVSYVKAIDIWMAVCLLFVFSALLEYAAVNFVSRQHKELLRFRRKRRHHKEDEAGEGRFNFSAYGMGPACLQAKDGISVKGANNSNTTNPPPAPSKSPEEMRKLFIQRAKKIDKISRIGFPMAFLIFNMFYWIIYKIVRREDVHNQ
Substance-P receptor, sequence (P25103 whole entry): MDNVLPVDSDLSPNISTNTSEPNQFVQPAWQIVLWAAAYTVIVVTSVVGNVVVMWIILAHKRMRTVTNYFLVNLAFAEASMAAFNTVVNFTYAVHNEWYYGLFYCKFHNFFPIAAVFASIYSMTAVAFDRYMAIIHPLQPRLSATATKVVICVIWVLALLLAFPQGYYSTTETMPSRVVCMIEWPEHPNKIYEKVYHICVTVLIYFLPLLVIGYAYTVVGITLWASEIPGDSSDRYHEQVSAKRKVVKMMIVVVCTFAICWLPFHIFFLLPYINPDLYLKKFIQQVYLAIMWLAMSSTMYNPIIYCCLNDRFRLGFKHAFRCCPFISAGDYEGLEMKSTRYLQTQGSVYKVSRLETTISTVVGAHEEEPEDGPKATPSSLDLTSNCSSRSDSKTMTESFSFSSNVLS
Glutamate receptor 3, sequence (P42263 whole entry): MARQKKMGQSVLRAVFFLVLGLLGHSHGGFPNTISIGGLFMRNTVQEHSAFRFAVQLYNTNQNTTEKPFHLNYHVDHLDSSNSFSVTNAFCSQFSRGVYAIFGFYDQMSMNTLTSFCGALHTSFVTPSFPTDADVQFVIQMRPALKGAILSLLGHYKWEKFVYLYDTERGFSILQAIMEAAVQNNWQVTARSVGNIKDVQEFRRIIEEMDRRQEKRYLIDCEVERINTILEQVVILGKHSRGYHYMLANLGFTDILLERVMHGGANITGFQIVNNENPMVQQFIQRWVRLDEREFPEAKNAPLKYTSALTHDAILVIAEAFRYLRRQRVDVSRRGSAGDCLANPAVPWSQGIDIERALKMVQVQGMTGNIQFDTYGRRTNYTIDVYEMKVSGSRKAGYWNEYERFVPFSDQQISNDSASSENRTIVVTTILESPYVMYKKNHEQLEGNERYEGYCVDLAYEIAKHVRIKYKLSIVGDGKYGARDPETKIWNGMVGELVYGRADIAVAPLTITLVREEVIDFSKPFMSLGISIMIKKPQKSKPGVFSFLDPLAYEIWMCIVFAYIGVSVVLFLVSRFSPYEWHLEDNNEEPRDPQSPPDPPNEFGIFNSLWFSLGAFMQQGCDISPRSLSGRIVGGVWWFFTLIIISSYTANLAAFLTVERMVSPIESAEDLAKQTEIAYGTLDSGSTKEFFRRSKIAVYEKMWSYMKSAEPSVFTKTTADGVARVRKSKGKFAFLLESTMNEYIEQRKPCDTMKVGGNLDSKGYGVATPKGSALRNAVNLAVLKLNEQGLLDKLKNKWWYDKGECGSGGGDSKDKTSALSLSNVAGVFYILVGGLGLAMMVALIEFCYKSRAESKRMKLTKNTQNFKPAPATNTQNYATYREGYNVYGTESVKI
Sodium-dependent dopamine transporter, sequence (Q01959 whole entry): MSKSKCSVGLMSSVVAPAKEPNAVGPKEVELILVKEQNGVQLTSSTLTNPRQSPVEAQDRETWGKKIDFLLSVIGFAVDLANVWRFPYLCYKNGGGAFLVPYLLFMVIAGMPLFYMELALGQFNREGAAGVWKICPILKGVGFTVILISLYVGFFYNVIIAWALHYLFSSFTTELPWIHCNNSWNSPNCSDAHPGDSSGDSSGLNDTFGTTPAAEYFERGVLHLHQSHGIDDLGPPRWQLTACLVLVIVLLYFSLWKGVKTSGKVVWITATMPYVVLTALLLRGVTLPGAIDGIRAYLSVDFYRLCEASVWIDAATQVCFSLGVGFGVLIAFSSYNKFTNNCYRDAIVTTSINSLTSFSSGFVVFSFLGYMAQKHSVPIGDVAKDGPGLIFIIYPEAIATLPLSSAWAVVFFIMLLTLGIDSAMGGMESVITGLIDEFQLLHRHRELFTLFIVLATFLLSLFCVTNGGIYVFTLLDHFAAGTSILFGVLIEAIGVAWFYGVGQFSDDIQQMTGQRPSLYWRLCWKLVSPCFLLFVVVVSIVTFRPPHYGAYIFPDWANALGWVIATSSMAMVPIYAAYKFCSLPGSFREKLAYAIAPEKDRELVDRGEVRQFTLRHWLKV
D(2) dopamine receptor, sequence (P14416 whole entry): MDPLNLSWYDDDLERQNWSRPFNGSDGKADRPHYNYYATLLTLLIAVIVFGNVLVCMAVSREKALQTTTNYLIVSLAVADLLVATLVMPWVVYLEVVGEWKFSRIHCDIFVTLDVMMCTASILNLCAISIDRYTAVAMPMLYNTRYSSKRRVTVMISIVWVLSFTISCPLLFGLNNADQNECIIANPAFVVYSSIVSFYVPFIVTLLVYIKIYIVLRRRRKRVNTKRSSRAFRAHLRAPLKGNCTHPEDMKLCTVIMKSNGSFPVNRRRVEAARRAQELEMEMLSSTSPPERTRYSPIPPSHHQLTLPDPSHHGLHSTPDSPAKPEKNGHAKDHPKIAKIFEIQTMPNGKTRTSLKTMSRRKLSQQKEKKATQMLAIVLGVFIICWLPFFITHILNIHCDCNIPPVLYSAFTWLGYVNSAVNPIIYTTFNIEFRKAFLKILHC
5-hydroxytryptamine receptor 1A/1B/1D/2C, sequence (P08908 whole entry): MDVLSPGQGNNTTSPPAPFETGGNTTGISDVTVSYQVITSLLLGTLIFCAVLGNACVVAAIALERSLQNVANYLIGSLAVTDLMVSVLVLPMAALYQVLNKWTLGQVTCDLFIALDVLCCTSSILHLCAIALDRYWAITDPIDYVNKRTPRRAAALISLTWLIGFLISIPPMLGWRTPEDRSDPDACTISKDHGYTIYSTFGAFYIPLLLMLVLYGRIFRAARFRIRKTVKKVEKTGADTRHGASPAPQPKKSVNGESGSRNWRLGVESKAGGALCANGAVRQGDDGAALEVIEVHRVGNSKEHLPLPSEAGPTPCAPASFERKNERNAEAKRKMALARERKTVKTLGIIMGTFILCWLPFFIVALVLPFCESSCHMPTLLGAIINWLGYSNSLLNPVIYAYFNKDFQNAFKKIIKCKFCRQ
5-hydroxytryptamine receptor 1A/1B/1D/2C, sequence (P28222 whole entry): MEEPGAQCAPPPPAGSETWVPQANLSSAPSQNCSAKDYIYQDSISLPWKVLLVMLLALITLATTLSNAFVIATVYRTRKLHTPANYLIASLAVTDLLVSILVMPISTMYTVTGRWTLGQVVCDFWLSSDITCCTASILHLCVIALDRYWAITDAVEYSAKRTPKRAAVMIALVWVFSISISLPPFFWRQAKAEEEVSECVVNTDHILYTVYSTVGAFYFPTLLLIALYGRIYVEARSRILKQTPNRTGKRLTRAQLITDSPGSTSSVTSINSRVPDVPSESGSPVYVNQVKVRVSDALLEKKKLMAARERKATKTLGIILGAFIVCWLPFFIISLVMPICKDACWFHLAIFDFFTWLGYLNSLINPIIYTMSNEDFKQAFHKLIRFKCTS
5-hydroxytryptamine receptor 1A/1B/1D/2C, sequence (P28221 whole entry): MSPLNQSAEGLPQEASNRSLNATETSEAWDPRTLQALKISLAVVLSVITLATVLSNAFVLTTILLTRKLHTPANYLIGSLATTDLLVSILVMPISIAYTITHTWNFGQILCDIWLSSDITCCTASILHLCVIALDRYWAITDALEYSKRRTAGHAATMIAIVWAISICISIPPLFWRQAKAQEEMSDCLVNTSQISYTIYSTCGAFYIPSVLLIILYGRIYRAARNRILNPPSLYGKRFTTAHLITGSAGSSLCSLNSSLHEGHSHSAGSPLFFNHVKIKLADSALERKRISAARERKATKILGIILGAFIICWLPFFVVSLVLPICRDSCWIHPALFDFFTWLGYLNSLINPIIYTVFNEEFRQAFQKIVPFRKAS
5-hydroxytryptamine receptor 1A/1B/1D/2C, sequence (P28335 whole entry): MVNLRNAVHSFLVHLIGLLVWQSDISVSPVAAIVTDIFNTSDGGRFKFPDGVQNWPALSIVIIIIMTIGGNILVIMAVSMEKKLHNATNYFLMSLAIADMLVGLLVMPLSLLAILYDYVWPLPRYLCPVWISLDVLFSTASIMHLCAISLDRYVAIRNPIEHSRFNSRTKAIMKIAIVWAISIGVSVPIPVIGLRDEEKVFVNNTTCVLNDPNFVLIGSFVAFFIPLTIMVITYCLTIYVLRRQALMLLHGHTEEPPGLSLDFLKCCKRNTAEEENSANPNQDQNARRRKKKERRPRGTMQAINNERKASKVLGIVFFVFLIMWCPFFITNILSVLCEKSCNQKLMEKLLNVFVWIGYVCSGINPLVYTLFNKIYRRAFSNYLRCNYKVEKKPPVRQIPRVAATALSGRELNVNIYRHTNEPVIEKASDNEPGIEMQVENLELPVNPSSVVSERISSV
Adrenergic alpha2 receptor, sequence (Q60533 whole entry): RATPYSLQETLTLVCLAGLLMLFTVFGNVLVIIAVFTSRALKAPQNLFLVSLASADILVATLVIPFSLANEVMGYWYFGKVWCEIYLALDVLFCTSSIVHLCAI

Cc1cc([C@@H]2CCCN2C)on1 [ABT-418]
> 10 µM: [1] | Substance-P receptor | [2] | GLRA1 protein | D(1A) dopamine receptor | [3] | [4] | VIP peptides | Adenosine receptor A2a | [5] | [6] | [7] | [8] | [9] | Substance-K receptor | D(2) dopamine receptor | Beta-nerve growth factor | Adenosine receptor A1 | [10] | [11] | [12] | Glutamate receptor 3 | Protein kinase C | [13] | [14] | [15] | Adenylate cyclase type 9 | [16] | [17] | [18] | Apamin | [19] | Histamine H1 receptor
